Measurements published in publication PMC6704710, “Preclinical evaluation of 3D185, a novel potent inhibitor of FGFR1/2/3 and CSF-1R, in FGFR-dependent and macrophage-dominant cancer models” (Journal of Experimental & Clinical Cancer Research : CR, 2019).

Columns and labels:
Assay in all cases: Eurofins kinase panel
Type in all cases: biochemical
[1] = biological target: FGFR1(h) (Homo sapiens, UniProt P11362)
[2] = biological target: T1, GRK1(h) (Homo sapiens, UniProt Q15835); details: read-out: Inhibition rate (%)
T1 construct: purchased Eurofins (KinaseProfiler)
T1 sequence (Q15835 1-563): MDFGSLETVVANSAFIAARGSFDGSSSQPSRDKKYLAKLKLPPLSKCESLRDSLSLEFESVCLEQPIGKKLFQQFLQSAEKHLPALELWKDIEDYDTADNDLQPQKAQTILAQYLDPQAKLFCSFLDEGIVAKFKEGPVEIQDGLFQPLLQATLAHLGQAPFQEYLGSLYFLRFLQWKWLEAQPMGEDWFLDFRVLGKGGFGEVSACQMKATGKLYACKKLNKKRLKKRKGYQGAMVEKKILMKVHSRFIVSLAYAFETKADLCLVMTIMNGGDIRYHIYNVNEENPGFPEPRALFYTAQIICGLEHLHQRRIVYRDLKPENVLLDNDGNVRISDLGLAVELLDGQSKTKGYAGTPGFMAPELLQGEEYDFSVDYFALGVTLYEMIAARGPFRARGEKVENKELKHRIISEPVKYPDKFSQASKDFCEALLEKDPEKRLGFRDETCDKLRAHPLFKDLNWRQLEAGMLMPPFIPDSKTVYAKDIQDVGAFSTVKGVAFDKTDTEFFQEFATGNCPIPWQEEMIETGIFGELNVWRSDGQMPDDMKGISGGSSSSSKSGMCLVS

[3] = biological target: T2, IKKα(h) (Homo sapiens, UniProt O15111); details: read-out: Inhibition rate (%)
T2 construct: purchased Eurofins (KinaseProfiler)
T2 sequence (O15111 1-745): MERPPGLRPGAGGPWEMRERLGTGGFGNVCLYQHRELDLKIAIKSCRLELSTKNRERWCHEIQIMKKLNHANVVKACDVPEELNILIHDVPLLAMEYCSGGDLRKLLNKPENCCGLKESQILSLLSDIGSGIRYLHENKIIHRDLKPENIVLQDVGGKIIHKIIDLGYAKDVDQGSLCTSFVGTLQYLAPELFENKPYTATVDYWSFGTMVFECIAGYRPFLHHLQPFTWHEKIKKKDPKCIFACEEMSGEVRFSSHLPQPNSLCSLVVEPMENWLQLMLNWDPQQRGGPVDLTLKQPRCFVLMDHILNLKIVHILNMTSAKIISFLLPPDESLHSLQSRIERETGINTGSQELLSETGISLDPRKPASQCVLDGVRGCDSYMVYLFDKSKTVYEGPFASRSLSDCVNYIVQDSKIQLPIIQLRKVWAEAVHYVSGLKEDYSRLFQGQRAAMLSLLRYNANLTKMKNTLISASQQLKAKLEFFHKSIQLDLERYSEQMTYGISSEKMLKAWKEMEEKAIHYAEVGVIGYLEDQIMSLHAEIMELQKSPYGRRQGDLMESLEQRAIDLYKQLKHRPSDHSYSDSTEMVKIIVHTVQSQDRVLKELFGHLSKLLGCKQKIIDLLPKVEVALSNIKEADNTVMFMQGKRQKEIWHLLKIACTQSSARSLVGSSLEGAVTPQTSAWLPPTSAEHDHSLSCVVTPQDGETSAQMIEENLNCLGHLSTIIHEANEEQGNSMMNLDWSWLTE

[4] = biological target: T3, LRRK2(h) (Homo sapiens, UniProt Q5S007); details: read-out: Inhibition rate (%)
T3 construct: purchased Eurofins (KinaseProfiler)
T3 sequence (Q5S007 whole entry): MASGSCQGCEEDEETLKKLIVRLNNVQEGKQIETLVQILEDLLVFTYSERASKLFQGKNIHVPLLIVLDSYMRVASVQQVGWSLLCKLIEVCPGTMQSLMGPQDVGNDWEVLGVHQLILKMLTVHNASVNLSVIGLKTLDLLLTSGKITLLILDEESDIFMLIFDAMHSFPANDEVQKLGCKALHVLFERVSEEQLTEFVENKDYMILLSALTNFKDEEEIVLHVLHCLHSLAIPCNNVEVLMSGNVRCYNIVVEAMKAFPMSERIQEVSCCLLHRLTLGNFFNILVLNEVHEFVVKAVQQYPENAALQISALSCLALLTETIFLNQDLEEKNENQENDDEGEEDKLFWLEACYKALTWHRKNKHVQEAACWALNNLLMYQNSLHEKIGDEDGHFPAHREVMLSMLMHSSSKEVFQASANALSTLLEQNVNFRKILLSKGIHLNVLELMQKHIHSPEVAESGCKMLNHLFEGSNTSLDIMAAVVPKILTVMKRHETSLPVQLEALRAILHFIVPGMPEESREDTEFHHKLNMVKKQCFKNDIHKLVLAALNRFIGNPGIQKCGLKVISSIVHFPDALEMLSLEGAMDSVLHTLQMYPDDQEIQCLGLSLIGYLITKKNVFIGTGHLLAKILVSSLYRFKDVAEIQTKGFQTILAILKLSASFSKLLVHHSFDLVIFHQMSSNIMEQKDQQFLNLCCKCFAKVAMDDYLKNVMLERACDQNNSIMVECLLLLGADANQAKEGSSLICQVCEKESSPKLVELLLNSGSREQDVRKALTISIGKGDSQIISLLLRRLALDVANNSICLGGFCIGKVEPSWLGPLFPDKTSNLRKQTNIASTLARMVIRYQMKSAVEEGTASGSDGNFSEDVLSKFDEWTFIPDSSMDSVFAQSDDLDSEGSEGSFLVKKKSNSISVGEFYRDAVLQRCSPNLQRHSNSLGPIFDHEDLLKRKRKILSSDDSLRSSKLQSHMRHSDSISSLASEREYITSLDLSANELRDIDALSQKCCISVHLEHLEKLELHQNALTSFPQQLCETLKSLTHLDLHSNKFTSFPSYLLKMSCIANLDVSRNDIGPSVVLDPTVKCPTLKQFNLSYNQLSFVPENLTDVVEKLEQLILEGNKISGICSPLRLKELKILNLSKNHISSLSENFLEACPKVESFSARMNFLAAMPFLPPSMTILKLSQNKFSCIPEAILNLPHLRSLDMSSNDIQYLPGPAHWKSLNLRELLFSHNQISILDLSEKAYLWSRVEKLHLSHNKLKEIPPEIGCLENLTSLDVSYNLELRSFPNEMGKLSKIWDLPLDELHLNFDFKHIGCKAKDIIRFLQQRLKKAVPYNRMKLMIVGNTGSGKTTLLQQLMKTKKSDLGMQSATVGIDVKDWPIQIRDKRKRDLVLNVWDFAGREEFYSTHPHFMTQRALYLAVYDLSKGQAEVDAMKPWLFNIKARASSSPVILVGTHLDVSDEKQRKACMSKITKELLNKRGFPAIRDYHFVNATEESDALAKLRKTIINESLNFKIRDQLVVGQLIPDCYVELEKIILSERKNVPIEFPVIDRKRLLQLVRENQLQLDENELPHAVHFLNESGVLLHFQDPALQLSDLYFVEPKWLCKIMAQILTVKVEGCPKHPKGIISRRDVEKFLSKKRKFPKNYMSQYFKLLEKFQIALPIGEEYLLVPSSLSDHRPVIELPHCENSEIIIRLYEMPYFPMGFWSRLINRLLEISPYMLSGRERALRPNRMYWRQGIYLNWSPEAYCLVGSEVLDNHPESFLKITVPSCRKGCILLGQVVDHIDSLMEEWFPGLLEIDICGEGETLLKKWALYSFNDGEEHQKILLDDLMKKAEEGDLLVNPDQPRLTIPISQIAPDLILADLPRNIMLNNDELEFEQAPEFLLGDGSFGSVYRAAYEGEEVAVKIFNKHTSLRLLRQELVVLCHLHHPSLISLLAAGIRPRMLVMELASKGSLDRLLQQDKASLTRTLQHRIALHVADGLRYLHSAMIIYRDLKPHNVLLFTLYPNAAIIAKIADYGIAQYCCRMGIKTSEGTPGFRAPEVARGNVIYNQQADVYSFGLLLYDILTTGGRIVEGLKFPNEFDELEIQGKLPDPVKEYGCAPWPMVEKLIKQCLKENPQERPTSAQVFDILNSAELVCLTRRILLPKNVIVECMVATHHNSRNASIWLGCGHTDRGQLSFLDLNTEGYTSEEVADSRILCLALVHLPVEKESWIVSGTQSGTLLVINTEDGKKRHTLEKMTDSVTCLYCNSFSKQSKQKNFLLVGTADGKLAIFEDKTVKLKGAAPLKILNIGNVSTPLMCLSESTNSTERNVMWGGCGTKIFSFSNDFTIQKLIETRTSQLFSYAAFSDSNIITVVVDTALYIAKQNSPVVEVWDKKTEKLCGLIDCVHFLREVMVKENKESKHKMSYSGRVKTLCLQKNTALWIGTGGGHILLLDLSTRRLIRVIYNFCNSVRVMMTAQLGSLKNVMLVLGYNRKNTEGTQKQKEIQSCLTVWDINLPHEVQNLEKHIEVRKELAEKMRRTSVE

[5] = biological target: T4, MINK(h) (Homo sapiens, UniProt Q8N4C8); details: read-out: Inhibition rate (%)
T4 construct: purchased Eurofins (KinaseProfiler)
T4 sequence (Q8N4C8 whole entry): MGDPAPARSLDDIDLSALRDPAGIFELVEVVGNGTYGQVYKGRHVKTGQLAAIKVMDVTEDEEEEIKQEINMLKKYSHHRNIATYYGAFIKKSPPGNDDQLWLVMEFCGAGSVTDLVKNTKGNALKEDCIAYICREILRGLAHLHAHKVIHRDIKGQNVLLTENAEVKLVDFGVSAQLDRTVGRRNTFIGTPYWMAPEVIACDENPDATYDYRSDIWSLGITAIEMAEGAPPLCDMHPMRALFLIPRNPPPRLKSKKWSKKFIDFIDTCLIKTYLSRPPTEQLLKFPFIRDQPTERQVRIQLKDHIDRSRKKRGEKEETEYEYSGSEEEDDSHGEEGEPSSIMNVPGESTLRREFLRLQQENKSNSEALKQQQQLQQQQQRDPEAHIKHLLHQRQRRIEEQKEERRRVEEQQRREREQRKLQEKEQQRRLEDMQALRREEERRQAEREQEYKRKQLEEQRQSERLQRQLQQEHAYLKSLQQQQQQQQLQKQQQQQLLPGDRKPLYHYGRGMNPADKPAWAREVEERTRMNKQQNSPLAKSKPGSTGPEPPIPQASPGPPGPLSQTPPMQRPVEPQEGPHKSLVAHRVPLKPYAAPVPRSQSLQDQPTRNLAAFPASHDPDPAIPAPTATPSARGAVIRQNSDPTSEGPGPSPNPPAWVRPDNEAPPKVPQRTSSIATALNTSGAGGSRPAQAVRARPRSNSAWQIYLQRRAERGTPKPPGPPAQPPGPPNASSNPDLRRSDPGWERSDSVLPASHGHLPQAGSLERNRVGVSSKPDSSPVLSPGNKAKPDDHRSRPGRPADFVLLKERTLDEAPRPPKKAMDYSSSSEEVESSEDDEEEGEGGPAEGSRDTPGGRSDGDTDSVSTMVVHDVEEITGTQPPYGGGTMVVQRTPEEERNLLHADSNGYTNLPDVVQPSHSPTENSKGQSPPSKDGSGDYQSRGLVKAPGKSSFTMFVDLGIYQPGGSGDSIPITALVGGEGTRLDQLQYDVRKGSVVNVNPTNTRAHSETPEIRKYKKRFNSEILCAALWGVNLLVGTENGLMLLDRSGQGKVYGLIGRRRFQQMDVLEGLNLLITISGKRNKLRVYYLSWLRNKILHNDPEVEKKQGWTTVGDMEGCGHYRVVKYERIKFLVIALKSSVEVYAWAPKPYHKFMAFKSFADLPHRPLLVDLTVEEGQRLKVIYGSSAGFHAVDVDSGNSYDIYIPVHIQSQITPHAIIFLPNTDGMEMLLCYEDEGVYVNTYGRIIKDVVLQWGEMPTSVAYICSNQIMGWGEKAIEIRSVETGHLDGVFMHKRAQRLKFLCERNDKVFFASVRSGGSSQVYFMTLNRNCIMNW

[6] = biological target: T5, NEK7(h) (Homo sapiens, UniProt Q8TDX7); details: read-out: Inhibition rate (%)
T5 construct: purchased Eurofins (KinaseProfiler)
T5 sequence (Q8TDX7 whole entry): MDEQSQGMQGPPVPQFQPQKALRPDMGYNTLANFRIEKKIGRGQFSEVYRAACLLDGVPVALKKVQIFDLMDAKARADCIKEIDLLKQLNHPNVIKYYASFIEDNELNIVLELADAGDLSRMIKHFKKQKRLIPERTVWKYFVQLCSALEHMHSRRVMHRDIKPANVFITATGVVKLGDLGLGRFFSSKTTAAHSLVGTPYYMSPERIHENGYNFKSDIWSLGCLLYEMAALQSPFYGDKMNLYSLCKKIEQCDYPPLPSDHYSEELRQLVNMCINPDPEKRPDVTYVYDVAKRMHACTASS

[7] = biological target: T6, PAR-1Bα(h) (Homo sapiens, UniProt Q7KZI7); details: read-out: Inhibition rate (%)
T6 construct: purchased Eurofins (KinaseProfiler)
T6 sequence (Q7KZI7 1-725 isoform Q7KZI7-4): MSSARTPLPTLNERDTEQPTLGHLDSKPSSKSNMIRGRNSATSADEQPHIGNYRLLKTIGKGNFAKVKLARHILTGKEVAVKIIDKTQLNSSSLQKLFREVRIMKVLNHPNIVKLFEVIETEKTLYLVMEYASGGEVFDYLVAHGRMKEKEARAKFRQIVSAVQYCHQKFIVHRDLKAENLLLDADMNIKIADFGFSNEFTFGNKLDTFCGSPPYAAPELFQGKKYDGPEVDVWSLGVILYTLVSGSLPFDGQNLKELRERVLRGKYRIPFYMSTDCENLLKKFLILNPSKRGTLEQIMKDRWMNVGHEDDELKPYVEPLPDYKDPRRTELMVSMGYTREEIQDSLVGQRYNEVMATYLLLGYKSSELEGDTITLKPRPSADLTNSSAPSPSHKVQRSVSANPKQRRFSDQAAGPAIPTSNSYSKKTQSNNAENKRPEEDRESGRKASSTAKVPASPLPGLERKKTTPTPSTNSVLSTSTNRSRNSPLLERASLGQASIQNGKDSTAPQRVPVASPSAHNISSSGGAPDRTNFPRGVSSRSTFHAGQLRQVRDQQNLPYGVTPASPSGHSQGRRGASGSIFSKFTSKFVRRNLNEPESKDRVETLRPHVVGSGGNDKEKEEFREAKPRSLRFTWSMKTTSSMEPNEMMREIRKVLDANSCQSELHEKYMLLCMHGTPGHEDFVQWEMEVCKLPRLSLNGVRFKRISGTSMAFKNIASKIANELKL

[8] = biological target: T7, TGFBR1(h) (Homo sapiens, UniProt P36897); details: read-out: Inhibition rate (%)
T7 construct: purchased Eurofins (KinaseProfiler)
T7 sequence (P36897 34-503): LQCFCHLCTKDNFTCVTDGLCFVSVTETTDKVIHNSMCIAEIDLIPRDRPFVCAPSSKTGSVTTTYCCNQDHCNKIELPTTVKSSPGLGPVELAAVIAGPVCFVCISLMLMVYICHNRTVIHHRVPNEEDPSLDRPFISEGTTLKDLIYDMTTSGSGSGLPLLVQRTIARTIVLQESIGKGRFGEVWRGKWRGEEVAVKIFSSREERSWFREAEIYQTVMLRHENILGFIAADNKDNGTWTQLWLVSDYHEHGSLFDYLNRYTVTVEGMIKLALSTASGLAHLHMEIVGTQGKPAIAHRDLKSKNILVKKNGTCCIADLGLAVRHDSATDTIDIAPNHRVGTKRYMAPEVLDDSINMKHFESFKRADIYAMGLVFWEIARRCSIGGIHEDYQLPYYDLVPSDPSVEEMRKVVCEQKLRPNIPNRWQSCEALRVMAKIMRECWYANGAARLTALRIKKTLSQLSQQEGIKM

`COc1cc(OC)c(Cl)c(-c2ccc3c(NC(=O)c4ccc(N5CCNC(C)(C)C5)cc4)n[nH]c3n2)c1Cl` [3D185] showed an IC50 ([1]; estimated from 372-kinase panel) of less than 10 nM, an inhibition at 0.01 µM ([1]; read-out: Inhibition rate (%)) of 99% and an inhibition at 0.1 µM ([1]; read-out: Inhibition rate (%)) of 98%. The inhibition at 1 µM ([1]; read-out: Inhibition rate (%)) was 100%, the inhibition at 0.01 µM ([2]; 10 nM) was -2% and the inhibition at 0.1 µM ([2]; 100 nM) was -5%. For the same molecule, the inhibition at 1 µM ([2]; 1000 nM) was -7%, the inhibition at 0.01 µM ([3]; 10 nM) was -3% and the inhibition at 0.1 µM ([3]; 100 nM) was -3%. The inhibition at 1 µM ([3]; 1000 nM) was -7%, the inhibition at 0.01 µM ([4]; 10 nM) was -10% and the inhibition at 0.1 µM ([4]; 100 nM) was -3%. The inhibition at 1 µM ([4]; 1000 nM) was 21%, the inhibition at 0.01 µM ([5]; 10 nM) was 28% and the inhibition at 0.1 µM ([5]; 100 nM) was 68%. It also gave an inhibition at 1 µM ([5]; 1000 nM) of 90%, an inhibition at 0.01 µM ([6]; 10 nM) of 2% and an inhibition at 0.1 µM ([6]; 100 nM) of 1%. For the same molecule, the inhibition at 1 µM ([6]; 1000 nM) was -1%, the inhibition at 0.01 µM ([7]; 10 nM) was -4% and the inhibition at 0.1 µM ([7]; 100 nM) was -3%. The inhibition at 1 µM ([7]; 1000 nM) was 2%, the inhibition at 0.01 µM ([8]; 10 nM) was -15% and the inhibition at 0.1 µM ([8]; 100 nM) was -19%. It also gave an inhibition at 1 µM ([8]; 1000 nM) of -17%.
